# Values joined by “and” are separate entries in the source; they are usually repeats but may differ in a detail not shown here. Equal values may be shown once.
# Columns and labels:
# P-gp = target: T1, P-gp (Homo sapiens, UniProt P08183); experiment: LC-MS/MS intracellular accumulation assay with or without tariquidar (P-gp transport substrate test) in DU145-TXR cells; format: in vitro ADME; details: for P-gp transport substrate assessment / Intracellular accumulation (normalized ratio of compound to internal standard), Trial 1, + TQR / Intracellular accumulation (normalized ratio of compound to internal standard), Trial 2, + TQR / Intracellular accumulation (normalized ratio of compound to internal standard), Trial 1, - TQR / Intracellular accumulation (normalized ratio of compound to internal standard), Trial 2, - TQR: DU145-TXR, 2.5 h; for P-gp transport substrate assessment: 5 µM compound with or without 500 nM tariquidar, LC-MS/MS; for Intracellular accumulation (normalized ratio of compound to internal standard), Trial 1, + TQR / Intracellular accumulation (normalized ratio of compound to internal standard), Trial 2, + TQR / Intracellular accumulation (normalized ratio of compound to internal standard), Trial 1, - TQR / Intracellular accumulation (normalized ratio of compound to internal standard), Trial 2, - TQR: 5 µM compound, mean ± SD, triplicate; for Intracellular accumulation (normalized ratio of compound to internal standard), Trial 1, + TQR / Intracellular accumulation (normalized ratio of compound to internal standard), Trial 2, + TQR: with 500 nM tariquidar; for Intracellular accumulation (normalized ratio of compound to internal standard), Trial 1, - TQR / Intracellular accumulation (normalized ratio of compound to internal standard), Trial 2, - TQR: without tariquidar; for P (- TQR vs + TQR), Trial 1 / P (- TQR vs + TQR), Trial 2: Student's T test of the mean; for Significance of accumulation with tariquidar, Trial 1 / Significance of accumulation with tariquidar, Trial 2: significant difference = likely P-gp transport substrate
# T1 construct: The MDR, P-gp overexpressing DU145-TXR cells were maintained under positive selection pressure; endogenous in cells; host or cells: DU145-TXR (paclitaxel-resistant sub-line of DU145 human prostate cancer cells)
# Method in brief: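 Analyte peak area normalised to internal standard and to lysate protein (BSA curve); relative accumulation compared between −/+ TQR by Student's t-test. Daunorubicin served as P-gp substrate positive control.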
# A2780 cells = experiment: MTT viability assay, parental A2780 cells, with or without PTX; format: cell-based, human; details: for Increase of PTX toxicity against parental A2780 cells: 15 µM compound with or without 500 nM PTX, 48 h, MTT; for Mean % Survival / % Survival (individual sample): A2780 cells; for Mean % Survival / viability at 15 µM: mean of 8 or 12 samples; for % Survival (individual sample): single samples; for viability at 15 µM: Homo sapiens, A2780, A2780 cells, read-out: Mean % Survival
# Method in brief: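 Viability was assessed by MTT reduction (absorbance 570 nm, 4 h MTT) after 48 h compound treatment, alone or with chemotherapeutic, of parental A2780 or P-gp-overexpressing A2780-ADR cells seeded at 3,000 per well. Percent survival relative to DMSO-treated or DMSO-plus-chemotherapeutic controls.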
# T1 sequence (P08183 whole entry): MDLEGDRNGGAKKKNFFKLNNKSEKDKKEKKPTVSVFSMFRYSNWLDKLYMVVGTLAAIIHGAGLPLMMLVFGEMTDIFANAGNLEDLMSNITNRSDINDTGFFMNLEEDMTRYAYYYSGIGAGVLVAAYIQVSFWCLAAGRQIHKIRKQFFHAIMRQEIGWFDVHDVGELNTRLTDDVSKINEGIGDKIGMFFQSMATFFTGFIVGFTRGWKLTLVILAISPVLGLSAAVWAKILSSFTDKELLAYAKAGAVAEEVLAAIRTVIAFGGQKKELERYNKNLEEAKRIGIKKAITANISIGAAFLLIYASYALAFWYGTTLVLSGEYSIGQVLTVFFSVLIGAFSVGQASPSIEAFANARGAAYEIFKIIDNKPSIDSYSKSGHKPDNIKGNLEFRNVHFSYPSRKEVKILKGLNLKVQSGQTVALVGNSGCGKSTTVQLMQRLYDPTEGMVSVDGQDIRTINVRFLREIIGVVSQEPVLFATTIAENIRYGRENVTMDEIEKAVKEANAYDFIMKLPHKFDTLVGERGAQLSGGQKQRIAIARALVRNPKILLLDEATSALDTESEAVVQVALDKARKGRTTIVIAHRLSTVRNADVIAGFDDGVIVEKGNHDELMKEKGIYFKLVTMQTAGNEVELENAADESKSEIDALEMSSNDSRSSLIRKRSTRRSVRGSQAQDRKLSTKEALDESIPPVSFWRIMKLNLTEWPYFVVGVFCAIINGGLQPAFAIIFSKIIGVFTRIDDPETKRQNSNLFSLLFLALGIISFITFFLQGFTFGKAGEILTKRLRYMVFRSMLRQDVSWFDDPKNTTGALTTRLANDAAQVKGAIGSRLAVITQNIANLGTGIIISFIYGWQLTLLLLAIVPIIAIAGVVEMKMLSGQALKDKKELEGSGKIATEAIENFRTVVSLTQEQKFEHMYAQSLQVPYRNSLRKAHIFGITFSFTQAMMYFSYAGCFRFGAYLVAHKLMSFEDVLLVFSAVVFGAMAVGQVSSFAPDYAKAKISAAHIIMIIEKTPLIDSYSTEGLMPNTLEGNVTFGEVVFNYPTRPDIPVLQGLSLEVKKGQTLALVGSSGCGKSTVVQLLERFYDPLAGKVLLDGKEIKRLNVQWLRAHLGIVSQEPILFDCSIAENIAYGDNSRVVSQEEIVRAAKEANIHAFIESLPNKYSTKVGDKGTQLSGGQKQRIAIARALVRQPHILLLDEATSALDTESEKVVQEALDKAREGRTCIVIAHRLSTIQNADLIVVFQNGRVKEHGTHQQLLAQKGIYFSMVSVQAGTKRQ
structure (smiles),measurement,setting,value
"Cc1onc(-c2ccccc2)c1-c1nnc(Cn2cnc3ccccc3c2=O)o1 [Compound 111, Cc1onc(c1-c1nnc(Cn2cnc3ccccc3c2=O)o1)-c1ccccc1]",P-gp transport substrate assessment,P-gp,unlikely to be transport substrates of P-gp
same,"Intracellular accumulation (normalized ratio of compound to internal standard), Trial 1, + TQR",P-gp,0.013 ± 0.004
same,"Intracellular accumulation (normalized ratio of compound to internal standard), Trial 2, + TQR",P-gp,0.013 ± 0.001
same,"Intracellular accumulation (normalized ratio of compound to internal standard), Trial 1, - TQR",P-gp,0.012 ± 0.002
same,"Intracellular accumulation (normalized ratio of compound to internal standard), Trial 2, - TQR",P-gp,0.011 ± 0.002
same,"P (- TQR vs + TQR), Trial 1",P-gp,0.7
same,"P (- TQR vs + TQR), Trial 2",P-gp,0.2
same,"Significance of accumulation with tariquidar, Trial 1",P-gp,N.S. (P > 0.05 = not significant (N.S.))
same,"Significance of accumulation with tariquidar, Trial 2",P-gp,N.S. (P > 0.05 = not significant (N.S.))
same,Increase of PTX toxicity against parental A2780 cells,A2780 cells,did not greatly increase the toxicity of PTX against the parental A2780 cells
same,Mean % Survival,A2780 cells; 15 µM compound + 500 nM PTX,14.4%
same,% Survival (individual sample),A2780 cells; 15 µM compound + 500 nM PTX,13%
same,% Survival (individual sample),A2780 cells; 15 µM compound alone,102%
same,viability at 15 µM,A2780 cells; 15 µM compound alone,94%
"O=C(NCc1cccc(F)c1)c1nnn2c1Sc1c(C(=O)NCc3cccc(F)c3)nnn1CC2 [Compound 122, Fc1cccc(CNC(=O)c2nnn3CCn4nnc(C(=O)NCc5cccc(F)c5)c4Sc23)c1]",P-gp transport substrate assessment,P-gp,potential P-gp transport substrates
same,"Intracellular accumulation (normalized ratio of compound to internal standard), Trial 1, + TQR",P-gp,0.146 ± 0.018
same,"Intracellular accumulation (normalized ratio of compound to internal standard), Trial 2, + TQR",P-gp,0.209 ± 0.014
same,"Intracellular accumulation (normalized ratio of compound to internal standard), Trial 1, - TQR",P-gp,0.049 ± 0.005
same,"Intracellular accumulation (normalized ratio of compound to internal standard), Trial 2, - TQR",P-gp,0.058 ± 0.018
same,"P (- TQR vs + TQR), Trial 1",P-gp,0.0008
same,"P (- TQR vs + TQR), Trial 2",P-gp,0.0003
same,"Significance of accumulation with tariquidar, Trial 1",P-gp,*** (P < 0.001 = ***)
same,"Significance of accumulation with tariquidar, Trial 2",P-gp,*** (P < 0.001 = ***)
same,Increase of PTX toxicity against parental A2780 cells,A2780 cells,did not greatly increase the toxicity of PTX against the parental A2780 cells
same,Mean % Survival,A2780 cells; 15 µM compound + 500 nM PTX,13.6%
same,% Survival (individual sample),A2780 cells; 15 µM compound + 500 nM PTX,12% and 14%
same,viability at 15 µM,A2780 cells; 15 µM compound alone,76.5%
"O=C(c1nc(-c2ccccn2)no1)N1CCN(c2nsc3ccccc23)CC1 [Compound 124, O=C(N1CCN(CC1)c1nsc2ccccc12)c1nc(no1)-c1ccccn1]",P-gp transport substrate assessment,P-gp,potential P-gp transport substrates
same,"Intracellular accumulation (normalized ratio of compound to internal standard), Trial 1, + TQR",P-gp,0.061 ± 0.011
same,"Intracellular accumulation (normalized ratio of compound to internal standard), Trial 2, + TQR",P-gp,0.055 ± 0.009
same,"Intracellular accumulation (normalized ratio of compound to internal standard), Trial 1, - TQR",P-gp,0.006 ± 0.001
same,"Intracellular accumulation (normalized ratio of compound to internal standard), Trial 2, - TQR",P-gp,0.007 ± 0.002
same,"P (- TQR vs + TQR), Trial 1",P-gp,0.001
same,"P (- TQR vs + TQR), Trial 2",P-gp,0.0008
same,"Significance of accumulation with tariquidar, Trial 1",P-gp,** (P < 0.01 = **)
same,"Significance of accumulation with tariquidar, Trial 2",P-gp,*** (P < 0.001 = ***)
same,Increase of PTX toxicity against parental A2780 cells,A2780 cells,did not greatly increase the toxicity of PTX against the parental A2780 cells
same,Mean % Survival,A2780 cells; 15 µM compound + 500 nM PTX,14.5%
same,% Survival (individual sample),A2780 cells; 15 µM compound + 500 nM PTX,10%
same,% Survival (individual sample),A2780 cells; 15 µM compound alone,86%
same,viability at 15 µM,A2780 cells; 15 µM compound alone,89.5%

# Reference: paper PMC12349723, “Computationally accelerated identification of P-glycoprotein inhibitors” (PLOS One, 2025)
